Consider 24 compounds from article PMC9110766, “Structure-Based Design of 2-Aminopurine Derivatives as CDK2 Inhibitors for Triple-Negative Breast Cancer” (Frontiers in Pharmacology, 2022).

Usually IC50 stands for the point on the concentration scale where inhibition reaches its midpoint. A word on the melting point: it is the temperature of the solid-liquid transition. The term inhibition denotes the relative decrease from the control value, in per cent.

In one data set the target is CDK2/cyclin A (Homo sapiens, UniProt P24941). Put plainly: CDK2 inhibition, Kinase-Glo Luminescent Kinase Assay. It is filed as biochemical. The following applies: for IC50: geometric means of n ⩾ 3 experiments, 10 µM ATP, read-out: IC50 against CDK2; for inhibition at 0.5 µM: read-out: inhibition rate (%) @0.5 μM against CDK2, compound at 0.5 μM; for CDK2 inhibitory activity (in words): screened at 0.5 μM. As for the experimental part:
The IC50 values were calculated using Prism GraphPad software.
Background: In Kinase-Glo more light means more ATP remaining.

Counter-ions that a name gives are not always drawn.

Consider “6-(3-(aminomethyl)phenyl)-N-(4-(piperazin-1-yl)phenyl)-9H-purin-2-amine dihydrochloride [Compound 11r]”, for which the half-inhibitory concentration (IC50) at CDK2/cyclin A was 190 ± 10 nM.

For the compound `O=[N+]([O-])c1cccc(Nc2nc(-c3ccccc3)c3nc[nH]c3n2)c1` [Compound 5a, N-(3-nitrophenyl)-6-phenyl-9H-purin-2-amine], at CDK2/cyclin A, the IC50 stood at 310 ± 10 nM.

For `O=[N+]([O-])c1cccc(Nc2nc(-c3cccc4ccccc34)c3nc[nH]c3n2)c1` [Compound 5b, 6-(naphthalen-1-yl)-N-(3-nitrophenyl)-9H-purin-2-amine], the melting point is over 300 °C. For the same compound, on CDK2/cyclin A, the inhibition at 0.5 µM worked out at 3% and the “CDK2 inhibitory activity (in words)” value is reported as “weak activity”.

On to `Cl.O=[N+]([O-])c1cccc(Nc2nc(-c3ccc[nH]3)c3nc[nH]c3n2)c1` [Compound 5c, N-(3-nitrophenyl)-6-(1H-pyrrol-2-yl)-9H-purin-2-amine hydrochloride], for which the melting point is 236 °C (dec.). Further, the inhibition at 0.5 µM on CDK2/cyclin A was 37%.

For `O=[N+]([O-])c1cccc(Nc2nc(-c3ccc4c(c3)OCO4)c3nc[nH]c3n2)c1` [Compound 5d, 6-(benzo[d][1,3]dioxol-5-yl)-N-(3-nitrophenyl)-9H-purin-2-amine], the melting point was 260 °C (dec.). In addition, at CDK2/cyclin A, the inhibition at 0.5 µM was 7% and the “CDK2 inhibitory activity (in words)” value is “weak activity”.

Compound `O=[N+]([O-])c1cccc(Nc2nc(-c3ccsc3)c3nc[nH]c3n2)c1` [Compound 5e, N-(3-nitrophenyl)-6-(thiophen-3-yl)-9H-purin-2-amine] had a melting point of over 280 °C. Moreover, the “CDK2 inhibitory activity (in words)” value on CDK2/cyclin A is “inactive”.

As for `O=[N+]([O-])c1cccc(Nc2nc(-c3cccc([N+](=O)[O-])c3)c3nc[nH]c3n2)c1` [Compound 5f, N,6-bis(3-nitrophenyl)-9H-purin-2-amine], the melting point is over 300 °C. Moreover, at CDK2/cyclin A, the “CDK2 inhibitory activity (in words)” value is “abolished CDK2 inhibitory activity”.

On to `O=C(O)c1cccc(-c2nc(Nc3cccc([N+](=O)[O-])c3)nc3[nH]cnc23)c1` [Compound 5g, 3-(2-((3-nitrophenyl)amino)-9H-purin-6-yl)benzoic acid], for which the IC50 on CDK2/cyclin A turned out to be 150 ± 10 nM.

Consider `COC(=O)c1cccc(-c2nc(Nc3cccc([N+](=O)[O-])c3)nc3[nH]cnc23)c1` [Compound 5h, Methyl 3-(2-((3-nitrophenyl)amino)-9H-purin-6-yl)benzoate], for which the melting point is 257 °C. For the same compound, on CDK2/cyclin A, the inhibition at 0.5 µM was found to be 11% and the “CDK2 inhibitory activity (in words)” value was “abolished CDK2 inhibitory activity”.

In the case of `O=[N+]([O-])c1cccc(Nc2nc(-c3ccc(F)cc3)c3nc[nH]c3n2)c1` [Compound 5i, 6-(4-fluorophenyl)-N-(3-nitrophenyl)-9H-purin-2-amine], the “CDK2 inhibitory activity (in words)” value at CDK2/cyclin A is “abolished CDK2 inhibitory activity”.

`O=C(O)c1ccc(-c2nc(Nc3cccc([N+](=O)[O-])c3)nc3[nH]cnc23)cc1` [Compound 5j, 4-(2-((3-nitrophenyl)amino)-9H-purin-6-yl)benzoic acid] gave a melting point of over 300 °C. Further, at CDK2/cyclin A, the inhibition at 0.5 µM worked out at 7% and the “CDK2 inhibitory activity (in words)” value is “low activity”.

Regarding `COC(=O)c1ccc(-c2nc(Nc3cccc([N+](=O)[O-])c3)nc3[nH]cnc23)cc1` [Compound 5k, Methyl 4-(2-((3-nitrophenyl)amino)-9H-purin-6-yl)benzoate], the melting point fell in the range of 212 to 214 °C. Further, on CDK2/cyclin A, the inhibition at 0.5 µM came out at 3% and the “CDK2 inhibitory activity (in words)” value is reported as “abolished CDK2 inhibitory activity”.

`Cl.Nc1ccc(-c2nc(Nc3cccc([N+](=O)[O-])c3)nc3[nH]cnc23)cc1` [Compound 11b, 6-(4-aminophenyl)-N-(3-nitrophenyl)-9H-purin-2-amine hydrochloride] showed a melting point of over 300 °C. In addition, the inhibition at 0.5 µM at CDK2/cyclin A was 40%.

In turn, `Cl.NCc1ccc(-c2nc(Nc3cccc([N+](=O)[O-])c3)nc3[nH]cnc23)cc1` [Compound 11d, 6-(4-(aminomethyl)phenyl)-N-(3-nitrophenyl)-9H-purin-2-amine hydrochloride] gave a melting point of over 300 °C. Moreover, the concentration for half-maximal inhibition (IC50) on CDK2/cyclin A was determined as 230 ± 10 nM.

With `Cl.NCCc1cccc(-c2nc(Nc3cccc([N+](=O)[O-])c3)nc3[nH]cnc23)c1` [Compound 11e, 6-(3-(2-aminoethyl)phenyl)-N-(3-nitrophenyl)-9H-purin-2-amine hydrochloride], the melting point is over 230 °C. For the same compound, the inhibition at 0.5 µM on CDK2/cyclin A worked out at 35%.

Compound `Cl.NCc1cccc(-c2nc(Nc3ccccc3)nc3[nH]cnc23)c1` [Compound 11f, 6-(3-(aminomethyl)phenyl)-N-phenyl-9H-purin-2-amine hydrochloride] came in with a melting point of 203 to 205 °C. Also, the inhibition at 0.5 µM at CDK2/cyclin A came to 35%.

In turn, `Cl.NCc1ccc(-c2nc(Nc3ccccc3)nc3[nH]cnc23)cc1` [Compound 11g, 6-(4-(aminomethyl)phenyl)-N-phenyl-9H-purin-2-amine hydrochloride] had a melting point of 200 to 202 °C. The concentration for half-maximal inhibition (IC50) at CDK2/cyclin A amounted to 130 ± 20 nM.

As to `Cl.NCc1cccc(-c2nc(Nc3ccc(-c4ccccc4)cc3)nc3[nH]cnc23)c1` [Compound 11h, N-([1,1′-biphenyl]-4-yl)-6-(3-(aminomethyl)phenyl)-9H-purin-2-amine hydrochloride], the melting point is 210 °C (dec.). In addition, the inhibition at 0.5 µM on CDK2/cyclin A is 13%.

The compound `Cc1ccc(Nc2nc(-c3cccc(CN)c3)c3nc[nH]c3n2)cc1.Cl` [Compound 11i, 6-(3-(aminomethyl)phenyl)-N-(p-tolyl)-9H-purin-2-amine hydrochloride] had a melting point of over 300 °C. Also, the IC50 on CDK2/cyclin A turned out to be 280 ± 20 nM.

Regarding `CC(C)(C)c1ccc(Nc2nc(-c3cccc(CN)c3)c3nc[nH]c3n2)cc1` [Compound 11j, 6-(3-(aminomethyl)phenyl)-N-(4-(tert-butyl)phenyl)-9H-purin-2-amine hydrochloride], on CDK2/cyclin A, the inhibition at 0.5 µM came to 28%.

Compound `Cl.NCc1cccc(-c2nc(Nc3ccc(N4CCNCC4)cc3)nc3[nH]cnc23)c1` [Compound 11k, 6-(3-(aminomethyl)phenyl)-N-(4-(piperazin-1-yl)phenyl)-9H-purin-2-amine hydrochloride] had a melting point of over 300 °C. Besides, on CDK2/cyclin A, the inhibition at 0.5 µM was determined as 26%.

For the compound `Cl.Cl.NCc1cccc(-c2nc(Nc3cccc(N)c3)nc3[nH]cnc23)c1` [Compound 11m, N ^ 1-(6-(3-(aminomethyl)phenyl)-9H-purin-2-yl)benzene-1,3-diamine dihydrochloride], the melting point was over 300 °C. In addition, the inhibition at 0.5 µM on CDK2/cyclin A was determined as 33%.

In turn, `Cl.NCc1cccc(-c2nc(Nc3ccc(F)cc3)nc3[nH]cnc23)c1` [Compound 11n, 6-(3-(aminomethyl)phenyl)-N-(4-fluorophenyl)-9H-purin-2-amine hydrochloride] returned a melting point of over 300 °C. Moreover, the IC50 on CDK2/cyclin A was 320 ± 60 nM.

As to `NCc1ccc(-c2nc(Nc3ccc(F)cc3)nc3[nH]cnc23)cc1` [Compound 11o, 6-(4-(aminomethyl)phenyl)-N-(4-fluorophenyl)-9H-purin-2-amine hydrochloride], on CDK2/cyclin A, the IC50 stood at 240 ± 10 nM.
